“And” between values parts separate entries of the source, which are not always exact repeats. Identical values can stand only once.
System: mixed inoculum of Aureobasidium pullulans, Fusarium solani, Penicillium funicularum, Scopulariopsis brevicaulis and Streptoverticillium waksmanii
Assay: Soil burial test of plasticised PVC strips containing biocide: weight loss after 20 weeks

| Compound | Actual % Weight Loss |
| --- | --- |
| Zinc Omadine [ZO] | 4.011% and 3.557% and 3.318% and 2.179% |
| CCCCCCCCn1sccc1=O [OIT, N-n-octyl isothiazolin-3-one] | 3.47% and 4.516% and 4.992% and 5.465% |

Reference: patent US6455558B1, “Biocide composition and use” (Avecia Limited, priority 1998, dated 2002)
